Source: patent US20210308034A1, “PREBIOTIC COMPOSITIONS AND METHODS FOR MAINTAINING A HEALTHY SKIN MICROBIOTA” (KIMBERLY-CLARK WORLDWIDE, INC., priority 2018, published 2021)
Where a SMILES comes first, the peptide text is derived from it.

Tests used:
Format in all cases: cell-based
[1] = tested on: Klebsiella pneumoniae (ATCC BAA-2146); conditions: Pathogenic; carbon microarray plate, OD 600 nm, 36 hr, 33° C.; positive = more than 0.05 OD units above zero; blank cell = not utilized
Excerpt: (§1) After creating desired ratios of various commensal skin bacteria in a healthy skin microbiome, 188 different carbohydrate sources were screened as the next step in determining potential prospects for skin microbiota balancing agents. The screening process was set up to determine which carbohydrate sources promoted commensal and/or pathogenic bacteria as well as to obtain individual and combinations of carbohydrate sources that could serve as microbiota balancing agents that can support or maintain the healthy proportions of commensal skin bacteria of Corynebacterium, Staphylococcus, and Micrococcus. The screening was conducted utilizing Biolog phenotype microarray plates (Hayward, Calif.). Table 1 provides a coded list of the commensal and pathogenic skin bacteria that the carbohydrates were screened against.
Table 2 provides the results of screening various carbohydrate sources against the commensal and pathogenic bacteria codes listed in Table 1. The Bacteria Codes B, D, E, I, and J are commensal bacteria and are shaded in Table 2 for references purposes. The bacteria codes were each placed in a carbon microarray plate and screened through the Carbohydrate Screening Test Method, as described in the Test Methods section herein. If a particular bacteria code utilized a specific carbohydrate source as described in the Carbohydrate Screening Test Method, then the corresponding cell in Table 2 was marked with a Y (short for “Yes”). […] Many of the carbohydrate sources were utilized by both commensal and pathogenic bacteria, and as such, would not provide an advantage for selective growth of the commensal bacteria. However, some of the carbohydrate sources were only used by commensal bacteria and were identified for further testing as described herein.
The study employed 10 representative skin bacteria; Staphylococcus epidermidis ATCC 14990, Staphylococcus epidermidis M23864:W2, Staphylococcus aureus ATCC 6538, Staphylococcus aureus ATCC 25904 (Newman), Pseudomonas aeruginosa ATCC 9027, Micrococcus luteus ATCC […], Micrococcus luteus SK58, Klebsiella pneumoniae ATCC BAA-2146, Corynebacterium amycolatum SK46, and Corynebacterium minutissimum ATCC 23348. Cultures were started from freezer bead stocks by placing a single bead into 20 mL of tryptic soy broth (TSB) for all organisms except C. amycolatum SK46 and C. minutissimum ATCC 23348, which were placed into brain heart infusion (BHI) broth. Cultures were grown for about 24 hr at 37° C. except M. luteus ATCC 49732 and M. luteus SK58, which were grown at 30° C. A passage of the culture was made using a sterile swab and streaked onto two M9*2 agar plates to prepare the incubated culture for the phenotype microarray pate according to Table 4. Plates were incubated for about 24 hr at 37° C. except for M. luteus ATCC 49732 and M. luteus SK58, which were incubated at 30° C. for 24 hr.
All cultures were harvested and washed before inoculation into the carbon microarray plate (BiOLOG, Hayward Calif.), with Biolog Plates PM1 and PM2 each having a source definition of Carbon. The bacteria on the M9*2 agar was suspended via agitation with an inoculating loop in 1 mL of M9*1 media for collection in a 1.7 mL micro centrifuge tube, as noted in Table 4. The bacteria was suspended again in M9*1 media, agitated, and collected into the same 1.7 mL microcentrifuge tube used in the previous step. The tube was centrifuged for 5 minutes at 4,000×G, supernatant decanted, the pellet was resuspended in 1 mL of M9*1 media, and vortex. This washing process was repeated for a total of 4 times.
A tenfold dilution in M9*1 media was performed using 1 mL of the washed bacterial culture. Of the tenfold dilution 200 μL was placed in an untreated 96-well plate (Falcon, Pasadena Tx.) for an initial optical density (OD) reading at a wavelength of 600 nm. The OD was used to correlate to colony forming units (CFU) per milliliter by using linear regression lines for each organism. […]

[2] = tested on: Corynebacterium jeikum (ATCC 33033); test: Carbohydrate Screening Test Method (Biolog phenotype microarray), Bacteria Code B; conditions: for Carbohydrate Screening Results, Bacteria Code B: Commensal, carbon microarray plate, OD 600 nm, 36 hr, 33° C., positive = more than 0.05 OD units above zero, blank cell = not utilized
Description: as §1, with “The” for “After creating desired ratios of various commensal skin bacteria in a healthy skin microbiome, 188 different carbohydrate sources were screened as the next step in determining potential prospects for skin microbiota balancing agents. The”
(§2) The Bacteria Codes B, D, E, I, and J are commensal bacteria and are shaded in Table 2 for references purposes. The bacteria codes were each placed in a carbon microarray plate and screened through the Carbohydrate Screening Test Method, as described in the Test Methods section herein. If a particular bacteria code utilized a specific carbohydrate source as described in the Carbohydrate Screening Test Method, then the corresponding cell in Table 2 was marked with a Y (short for “Yes”).
To do so, the respective microarray data for the 79 carbohydrate sources was run through the GrowthRates 2.1 program to obtain growth parameters, such as growth rates and maximum yield data as described by the Belingham Research Institute, Hall, B. G., H. Acar and M. Barlow. […] Mol. Biol. Evol. […] The max yield parameters generated were utilized to calculate ratios of tested commensal bacteria. The ratios calculated were compared back to the desired ratios identified above (Corynebacterium to Staphylococcus of 1.3, Corynebacterium to Micrococcus of 1.4, and Staphylococcus to Micrococcus of 1.1).
(§3) As an example of this methodology used to calculate the commensal bacteria ratios and the difference between the calculated ratios and the desired ratios, an example code from Table 3 will be described. […] The max yields were then used to calculate ratios the bacteria would reach in a co-culture.
A passage of the culture was made using a sterile swab and streaked onto two M9*2 agar plates to prepare the incubated culture for the phenotype microarray pate according to Table 4.
All cultures were harvested and washed before inoculation into the carbon microarray plate (BiOLOG, Hayward Calif.), with Biolog Plates PM1 and PM2 each having a source definition of Carbon. The bacteria on the M9*2 agar was suspended via agitation with an inoculating loop in 1 mL of M9*1 media for collection in a 1.7 mL micro centrifuge tube, as noted in Table 4.

[3] = tested on: Micrococcus luteus (SK58); test: Carbohydrate Screening Test Method (Biolog phenotype microarray), Bacteria Code E; conditions: for Carbohydrate Screening Results, Bacteria Code E: Commensal, carbon microarray plate, OD 600 nm, 36 hr, 33° C., positive = more than 0.05 OD units above zero, blank cell = not utilized
Excerpt: as §1, §2
To do so, the respective microarray data for the 79 carbohydrate sources was run through the GrowthRates 2.1 program to obtain growth parameters, such as growth rates and maximum yield data as described by the Belingham Research Institute, Hall, B. G., H. Acar and M. Barlow. 2014 Growth Rates Made Easy. Mol. Biol. Evol. 31:232-238 doi:10.1093/molbev/mst197. The max yield parameters generated were utilized to calculate ratios of tested commensal bacteria. The ratios calculated were compared back to the desired ratios identified above (Corynebacterium to Staphylococcus of 1.3, Corynebacterium to Micrococcus of 1.4, and Staphylococcus to Micrococcus of 1.1).
as §3

Compound	Carbohydrate Screening Results, Bacteria Code B [2]	Carbohydrate Screening Results, Bacteria Code E [3]	further results
O=C1O[C@H]([C@@H](O)CO)[C@@H](O)[C@@H]1O [L-Galactonic Acid-γ-Lactone]	Y	–	Carbohydrate Screening Results, Bacteria Code C [1]: Y
O=CC(=O)O [Glyoxylic Acid]	Y	–	–
N[C@H](CC(=O)O)C(=O)O [D-Aspartic Acid]	Y	Y	–
NCC(=O)N[C@@H](CC(=O)O)C(=O)O [Glycyl-L-Aspartic Acid] (H-Gly-Asp-OH)	–	Y	–
O=C(O)[C@@H](O)[C@H](O)[C@H](O)[C@@H](O)C(=O)O [Mucic Acid]	Y	–	–
N[C@@H](CC(=O)O)C(=O)O [L-Aspartic Acid]	Y	–	Carbohydrate Screening Results, Bacteria Code C [1]: Y
CC(=O)CC(=O)O [Acetoacetic Acid]	Y	Y	–
CCC(O)C(=O)O (stereo not drawn) [α-Hydroxy Butyric Acid]	Y	–	–
CC(=O)N[C@H]1[C@@H](O)[C@H](O)[C@@H](CO)O[C@H]1O [N-Acetyl-β-D-Mannosamine]	Y	Y	–
O=C(O)C[C@H](O)C(=O)O [L-Malic Acid]	Y	Y	–
NCCc1ccccc1 [Phenylethyl-amine]	Y	–	–
O=C(O)Cc1cccc(O)c1 [m-Hydroxy Phenyl Acetic Acid]	–	–	Carbohydrate Screening Results, Bacteria Code C [1]: Y
O=CO [Formic Acid]	Y	Y	–
O=C(O)CC(O)(CC(=O)O)C(=O)O [Citric Acid]	Y	–	–
O=C(O)[C@@H]1CCCN1 [L-Proline]	Y	Y	–
O=C(O)CO [Glycolic Acid]	Y	Y	–
C[C@H](O)[C@@H](N)C(=O)O [D-Threonine]	Y	Y	–
OC[C@H]1O[C@@H](Oc2ccc(O)cc2)[C@H](O)[C@@H](O)[C@@H]1O [Arbutin]	–	–	Carbohydrate Screening Results, Bacteria Code C [1]: Y
O=C1CCC(C(=O)O)O1 (stereo not drawn) [α-Hydroxy Glutaric Acid-γ-Lactone]	Y	Y	–
O=C(O)CC(Br)C(=O)O (stereo not drawn) [Bromo Succinic Acid]	Y	–	–
NC(=O)[C@@H](O)[C@@H](O)[C@H](O)[C@@H](O)C=O [Glucuronamide]	Y	Y	–

Compound	Carbohydrate Screening Results, Bacteria Code B [2]	Carbohydrate Screening Results, Bacteria Code E [3]	further results
C[C@@H](O)[C@H](N)C(=O)O [L-Threonine]	Y	Y	–
COC(=O)[C@@H](C)O [D-Lactic Acid Methyl Ester]	–	–	Carbohydrate Screening Results, Bacteria Code C [1]: Y
N[C@@H](C(=O)O)[C@@H](O)[C@H](O)[C@H](O)CO [D-Glucosaminic Acid]	–	Y	–
O=C(O)C(O)C(O)C(=O)O (stereo not drawn) [m-Tartaric Acid]	Y	–	–
OC[C@@H](O)[C@H](O)[C@H](O)[C@@H](O)CO [Dulcitol]	Y	Y	–
O=C(O)[C@H](O)[C@@H](O)[C@H](O)[C@H](O)CO[C@H]1O[C@H](CO)[C@H](O)[C@H](O)[C@H]1O [Melibionic Acid]	–	–	Carbohydrate Screening Results, Bacteria Code C [1]: Y
CCC(=O)C(=O)O [α-Keto-Butyric Acid]	Y	–	–
C[C@H](N)C(=O)NCC(=O)O [L-Alanyl-Glycine] (H-Ala-Gly-OH)	Y	Y	–
C[C@@H](N)C(=O)O [D-Alanine]	Y	Y	max yield ([3]; M. luteus SK58, GrowthRates 2.1 on microarray data): 0.098; max yield ([2]; C. jeikeium, GrowthRates 2.1 on microarray data): 0.157
NCC(=O)N[C@@H](CCC(=O)O)C(=O)O [Glycyl-L-Glutamic Acid] (H-Gly-Glu-OH)	–	Y	–
CC(O)CO (stereo not drawn) [1,2-Propanediol]	Y	Y	–
O=C(O)/C=C/C(=O)O [Fumaric Acid]	Y	Y	–
O=C[C@@H](O)[C@H](O[C@@H]1O[C@H](CO)[C@H](O)[C@H](O)[C@H]1O)[C@H](O)CO [3-0-β-D-Galacto-pyranosyl-D-Arabinose]	–	–	Carbohydrate Screening Results, Bacteria Code C [1]: Y
Nc1ncnc2c1ncn2[C@@H]1O[C@H](CO)[C@@H](O)[C@H]1O [Adenosine]	Y	Y	–
CCC(=O)O [Propionic Acid]	Y	Y	–
C[C@H](N)C(=O)O [L-Alanine]	–	Y	–
OC[C@H]1O[C@H](OC[C@H]2O[C@H](O[C@]3(CO)O[C@H](CO)[C@@H](O)[C@@H]3O)[C@H](O)[C@@H](O)[C@@H]2O)[C@H](O)[C@@H](O)[C@H]1O [D-Raffinose]	–	–	Carbohydrate Screening Results, Bacteria Code C [1]: Y
O=C(O)CCC(=O)C(=O)O [α-Keto-Glutaric Acid]	Y	–	–
Tween 40	Y	–	–
O=C(O)CC(CC(=O)O)C(=O)O [Tricarballylic Acid]	–	Y	–
